Measured values as given in ChEMBL document CHEMBL3638826, “Heterocyclic compounds as ERK inhibitors” (2015).

Target: Mitogen-activated protein kinase 1 (Mus musculus, UniProt P63085)
Assay: IMAP Assay : Condition 1: Activated ERK2 activity was also determined in the IMAP assay format using the procedure outlined above. 1 μl of 25× compound was added to […] of kinase buffer containing 0.25 ng fully phosphorylated, active Mouse ERK2 protein. Following a 30 minute incubation, the reactions were initiated by addition of 10 μl of kinase buffer containing 1 μM ERK2 IMAP substrate peptide (0.9 μM unlabeled […]-CONH2 and 100 nM […](5-carboxyfluorescein)-CONH2) and 30 μM ATP. Reactions proceeded for 30 minutes before termination by addition of 60 μl IMAP detection beads in binding buffer. Plates were read as above after 30 minute binding equilibration. Active compounds were reconfirmed in an independent assay.

Mitogen-activated protein kinase 1, sequence (P63085 whole entry): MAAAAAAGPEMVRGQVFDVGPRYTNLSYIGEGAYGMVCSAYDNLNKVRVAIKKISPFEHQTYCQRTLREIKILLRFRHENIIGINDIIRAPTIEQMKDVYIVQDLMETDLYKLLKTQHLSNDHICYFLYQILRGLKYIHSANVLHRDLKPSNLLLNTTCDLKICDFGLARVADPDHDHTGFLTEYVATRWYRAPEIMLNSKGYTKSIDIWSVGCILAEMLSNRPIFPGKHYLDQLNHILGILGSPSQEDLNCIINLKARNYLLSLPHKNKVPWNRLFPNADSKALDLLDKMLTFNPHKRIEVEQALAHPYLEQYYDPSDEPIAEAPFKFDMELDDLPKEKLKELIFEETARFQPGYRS

IC50: 35 nM
Compound: COc1cccc(F)c1CN1C[C@H](NC(=O)c2ccc3[nH]nc(-c4ccncc4)c3c2)CC[C@H]1C(=O)N1CCC(F)(F)CC1
